Test results published in ChEMBL document CHEMBL1150826, “Antibacterial diterpenes from the roots of Salvia blepharochlaena” (2001).
Values after ≈ are worked out from the molar mass of the structure shown. Active and inactive are the calls of the source. No cut-off for these calls is given here.

Key:
Enterococcus faecalis [1] = test: Antimicrobial activity against Enterococcus faecalis ATCC 29212 by disc-diffusion method; format: functional
Staphylococcus aureus [2] = test: Antimicrobial activity against Staphylococcus aureus ATCC 6538 by disc-diffusion method; format: functional
Bacillus subtilis [3] = test: Antimicrobial activity against Bacillus subtilis ATCC 6633 by tube dilution method; format: functional
Proteus mirabilis = test: Antimicrobial activity against Proteus mirabilis by disc-diffusion method; format: functional, organism-based
Klebsiella pneumoniae = test: Antimicrobial activity against Klebsiella pneumoniae by disc-diffusion method; format: functional, organism-based
Bacillus subtilis [4] = test: Antimicrobial activity against Bacillus subtilis ATCC 6633 by disc-diffusion method; format: functional
[5] = tested on: Staphylococcus epidermidis; test: Antimicrobial activity against Staphylococcus epidermidis ATCC 12228 by disc-diffusion method; format: functional
Escherichia coli = test: Antimicrobial activity against Escherichia coli by disc-diffusion method; format: functional, organism-based
Pseudomonas aeruginosa = test: Antimicrobial activity against Pseudomonas aeruginosa by disc-diffusion method; format: functional, organism-based
Candida albicans = test: Antimicrobial activity against Candida albicans by disc-diffusion method; format: functional, organism-based
Staphylococcus aureus [6] = test: Antimicrobial activity against Staphylococcus aureus ATCC 6538 by tube dilution method; format: functional
[7] = tested on: Staphylococcus epidermidis; test: Antimicrobial activity against Staphylococcus epidermidis ATCC 12228 by tube dilution method; format: functional
Enterococcus faecalis [8] = test: Antimicrobial activity against Enterococcus faecalis ATCC 29212 by tube dilution method; format: functional
[9] = tested on: Mycobacterium tuberculosis; test: Antimycobacterial activity against Mycobacterium tuberculosis by broth microdilution method; format: functional, organism-based

SMILES | inhibition zone (IZ) (Enterococcus faecalis [1]) | inhibition zone (IZ) (Staphylococcus aureus [2]) | MIC (Bacillus subtilis [3]) [µg/mL] | inhibition zone (IZ) (Proteus mirabilis) | inhibition zone (IZ) (Klebsiella pneumoniae) | inhibition zone (IZ) (Bacillus subtilis [4]) [mm] | inhibition zone (IZ) [5] | inhibition zone (IZ) (Escherichia coli) | inhibition zone (IZ) (Pseudomonas aeruginosa) | inhibition zone (IZ) (Candida albicans) | MIC (Staphylococcus aureus [6]) [µg/mL] | MIC [7] [µg/mL] | MIC (Enterococcus faecalis [8]) [µg/mL] | Activity [9]
COc1cc2c(cc1C(C)C)CC[C@H]1C(C)(C)CCC[C@]21C(=O)O | inactive | inactive | 6.5 (≈ 19.7 µM) | inactive | inactive | >7 | inactive | inactive | inactive | inactive | – | – | – | –
CC(=O)O[C@@H]1C[C@H]2C(C)(C)CCC[C@]2(C)C2=C1C(=O)C(C(C)C)=C(O)C2=O | inactive | >7 mm | 3 (≈ 8.01 µM) | inactive | inactive | >7 | >7 mm | inactive | inactive | inactive | 10 (≈ 26.7 µM) | 6 (≈ 16 µM) | – | –
CC(C)C1=C(O)C(=O)C2=C(C1=O)[C@H](O)C[C@H]1C(C)(C)CCC[C@]21C [HORMINONE] | >7 mm | >7 mm | 1.5 (≈ 4.51 µM) | inactive | inactive | >7 | >7 mm | inactive | inactive | inactive | 6.5 (≈ 19.6 µM) | 1.5 (≈ 4.51 µM) | 14 (≈ 42.1 µM) | –
Cc1c(O)cc2c3c(ccc2c1C)C=C(C(C)C)C(=O)C3=O | – | – | – | – | – | – | – | – | – | – | – | – | – | Active
COc1cc2c(ccc3c(C)c(C)ccc32)cc1C(C)C | – | – | – | – | – | – | – | – | – | – | – | – | – | Active
CC(C)c1cc2c(cc1O)[C@@]1(C)CCCC(C)(C)[C@@H]1CC2 [FERRUGINOL] | – | >7 mm | > 250 | – | – | >7 | >7 mm | – | – | – | > 250 | > 250 | – | –
COc1cc2c3c(ccc2c(C)c1C)C=C(C(C)C)C(=O)C3=O | – | – | – | – | – | – | – | – | – | – | – | – | – | Active
